Measurements: publication PMC8744338, “Luteolin increases susceptibility to macrolides by inhibiting MsrA efflux pump in Trueperella pyogenes” (Veterinary Research, 2022)

Biological target: T1, MsrA efflux pump (His-MsrA) (Staphylococcus epidermidis, UniProt P23212)
T1 construct: macrolide ABC-F MsrA of staphylococcal type, not methionine sulfoxide reductase
Assay: surface plasmon resonance (Biacore T200, His-MsrA captured on NTA chip)
Type: binding
Details: PBS-P running buffer; luteolin 12.5-400 μM

T1 sequence (P23212 whole entry): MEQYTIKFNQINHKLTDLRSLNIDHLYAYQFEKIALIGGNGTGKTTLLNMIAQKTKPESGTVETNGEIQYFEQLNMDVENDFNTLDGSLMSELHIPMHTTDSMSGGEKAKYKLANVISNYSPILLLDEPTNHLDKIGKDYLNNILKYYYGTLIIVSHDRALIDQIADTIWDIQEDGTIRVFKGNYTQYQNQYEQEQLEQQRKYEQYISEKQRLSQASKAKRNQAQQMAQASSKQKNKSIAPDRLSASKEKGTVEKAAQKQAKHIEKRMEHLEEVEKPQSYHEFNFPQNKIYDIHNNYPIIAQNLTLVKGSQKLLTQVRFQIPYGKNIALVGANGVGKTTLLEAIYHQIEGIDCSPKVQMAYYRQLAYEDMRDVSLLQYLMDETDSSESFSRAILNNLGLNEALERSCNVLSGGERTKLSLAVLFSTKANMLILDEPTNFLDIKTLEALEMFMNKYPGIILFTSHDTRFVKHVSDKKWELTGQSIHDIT

Work on `O=c1cc(-c2ccc(O)c(O)c2)oc2cc(O)cc(O)c12` [luteolin] yielded a Kd of 64.6 µM.
